Measurements reported in patent US7179937B2, “Cyclopentenone derivatives for cancer therapy” (Dabur Research Foundation, priority 2001, dated 2007).

Legend:
VEGF = VEGF levels in endothelial cells (ECV304), ELISA; type: cell-based, human; settings: 5 ug/ml, 4 hours
Experimental: Human endothelial cells (ECV304) were plated at the density of 8–10×10^5 cells per 2 ml in a six well plate. After an overnight incubation of cells at 37° C., cyclopentenone derivatives at a concentration of 5 ug/ml was added to the wells. The untreated wells served as controls. The plates were incubated for 4 hours at 37° C. The medium was collected from all the wells (control and treated) and spun down at 2000 r.p.m to remove the cellular material. The supernatant was collected and used for ELISA (quantikine human VEGF, R&D Systems). The assay employs the quantitative sandwich enzyme immuonoassay technique. A monoclonal antibody specific for VEGF has been pre-coated onto a microplate. Standards and samples were pipetted into the wells and VEGF present was bound by the immobilized antibody. After washing away the unbound substances, an enzyme-linked polyclonal antibody specific for VEGF was added to the wells. Following a wash to remove any unbound antibody-enzyme reagent, a substrate solution was added to the wells and color developed in proportion to the amount of VEGF bound in the initial step. The optical density of each well was determined within 30 minutes using a microplate reader set to 450 nm and reference wavelength at 540 nm. The VEGF levels were inhibited by the addition of cyclopentenone derivatives in vitro.

Caspase-3 = Caspase-3 induction in oral cancer cells (KB), colorimetric DEVD-pNA; type: cell-based, human; settings: 5 ug/ml
Experimental: Human squamous cell carcinoma (KB) were plated in a 25 cm^2 flask. When cultures achieved confluence, the cyclopentenone derivative of structure 20 was added to cells. The final concentration of derivative of the structure 20 in the flask was 5 ug/ml. The untreated wells served as controls. The cells were incubated with the drug for 2 different time points of 6 and 16 hours at 37° C. The cells were collected by centrifugation at 2000 r.p.m. for 10 minutes. The supernatant was gently removed and discarded while Lysis Buffer was added to the cell pellet (25 ul of lysis buffer per 1×10^4 cell). The cell lysate was incubated on ice for 10 minutes and centrifuged at 10,000-×g for 1 minute. The supernatant was transferred to a new tube and kept on ice. 50 ul of the cell lysate was added in a 96 well plate. To this was added 2× Reaction Buffer. Prior to using reaction buffer 10 ul of fresh DTT stock per 1 ml of 2× Reaction Buffer was added. To each well 5 ul of Caspase-3 colorimetric substrate (DEVD-pNA) was added. The plate was incubated for 1–2 hours at 37° C. and read at 405 nm.
The level of caspase enzymatic activity in the cell lysate is directly proportional to the absorbance at 405 nm.

Tubulin = test: in vitro tubulin polymerization (assembly) assay, absorbance at 340 nm; type: biochemical; settings: tubulin 1 mg/ml, 37° C., pH 6.9; read-out: IC50 values for inhibition of Tubulin Polymerization
Experimental: The cyclopentenone derivatives were checked for their effects on tubulin polymerization in in vitro. Briefly, the tubulin assembly reaction was performed at 37° C. in buffer containing 80 mM PIPES, 1 mM EGTA, 1.0 mM GTP and 1 mM MgCl2 (pH 6.9) at a tubulin concentration of 1 mg/ml in the presence or absence of the cyclopentenone derivatives. The final concentration of the cyclopentenone derivatives in the reaction mixture varied from 1–5 uM. The derivatives were dissolved in 0.1% DMSO. The control experiments were carried out with 0.1% DMSO. The tubulin polymerization was followed by measurement of the absorbance of the solution at 340 nm every 30 seconds. […] Thus the cyclopentenone derivatives mediated their observed anticancer activities by tubulin depolymerization.

PTC tumor xenografts = test: In vivo anti-tumor activity on PTC (colon) xenografted mice; design: species or system Balb/c athymic mice; settings: PTC xenograft, intravenously 0.5 mg/100 μL once a day for 14 days
Experimental: PTC tumor xenografts were grown in Balb/c athymic mice by subcutaneous inoculation of a single cell suspension of PTC cells (15×10^6 cells/100 μL). The tumor bearing animals were divided into 2 groups of three animals each including one group comprising untreated control animals. Treatment with compound of formula no. 49 was initiated when the average tumor volumes, as measured using a vernier caliper, were […]. Compound of formula no. 49 was administered intravenously to the assigned group of tumor bearing animals at a dose of 0.5 mg/100 μL once a day and the treatment was continued for a period of 14 days.
The antitumor activity of the compound was monitored by measuring tumor volumes every fourth day using the formula W*W*L*0.4 (W=smaller diameter, L=larger diameter). The percentage inhibition of tumor growth was calculated using the formula (1-tumor volume-treated/tumor volume-control)*100. […] Compound of formula no. […] The percentage inhibition of tumor growth caused compound of formula no. 49 as compared to controls on day 23 was 45.8%.

| Structure (SMILES) | Percent Reduction in VEGF (VEGF) [%] | IC50 (Tubulin) [nM] | other results |
| --- | --- | --- | --- |
| COc1ccc(C2=C(c3cc(OC)c(OC)c(OC)c3)C(=NO)CC2OC(C)=O)cc1 (stereo not shown) [Compound 20] | 2.0 ± 0.1 |  | Percent Induction of Caspase-3, 6 hours (Caspase-3; 6 hours): 13.6 ± 2.4%; Percent Induction of Caspase-3, 16 hours (Caspase-3; 16 hours): 20.7 ± 3.1% |
| COc1ccc(C2=C(c3cc(OC)c(OC)c(OC)c3)C(=O)CC2O)cc1O (stereo not shown) [Compound 39] |  | 1400 ± 600 |  |
| COc1ccc(C2=C(c3cc(OC)c(OC)c(OC)c3)C(=O)C(O)C2)cc1 (stereo not shown) [Compound 48] |  | 2100 ± 100 |  |
| COc1ccc(C2=C(c3cc(OC)c(OC)c(OC)c3)C(=NO)C(O)C2)cc1 (stereo not shown) [Compound 49] | 28.6 ± 1.9 | 2300 ± 500 | antitumor activity on PTC xenografts (in words) (PTC tumor xenografts): significant antitumor activity |
| COc1ccc(C2=C(c3cc(OC)c(OC)c(OC)c3)/C(=N\O)C(O)C2)cc1F (stereo not shown) [Compound 66] |  | 2000 ± 600 |  |
| COc1ccc(C2=C(c3cc(OC)c(OC)c(OC)c3)C(=O)C(O)C2)cc1O (stereo not shown) [Compound 74] |  | 1800 ± 500 |  |
